Legend:
Assay in all cases: relative viability (nuclei count vs DMSO), 5 days (fraction); higher = more cells survive
BX 795 + Luminespib = compound: O=C(NCCCNc1nc(Nc2cccc(NC(=O)N3CCCC3)c2)ncc1I)c1cccs1 [BX 795] + CCNC(=O)c1noc(-c2cc(C(C)C)c(O)cc2O)c1-c1ccc(CN2CCOCC2)cc1 [Luminespib] (partner 0.01 µM)
Summary of the method: (§1)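 Nuclei were stained with Hoechst during a one-step fixation (final 0.05% Triton X-100, 1% formaldehyde, 1 ug/ml Hoechst) carried out 5 days after dosing, then counted on 4× images. The cells, lung cancer lines in 1536-well plates, had been dosed by pin tool the day after seeding with one drug alone or a fixed anchor-drug dose plus five library-drug doses (not always all listed) in √10 steps. Relative viability is the nuclei count in treated wells divided by that in vehicle wells, and each value is the median of duplicate plates.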

BX 795 + Dasatinib = compound: O=C(NCCCNc1nc(Nc2cccc(NC(=O)N3CCCC3)c2)ncc1I)c1cccs1 [BX 795] + Cc1nc(Nc2ncc(C(=O)Nc3c(C)cccc3Cl)s2)cc(N2CCN(CCO)CC2)n1 [Dasatinib] (partner 0.075 µM)
Summary of the method: as §1

BX 795 + Foretinib = compound: O=C(NCCCNc1nc(Nc2cccc(NC(=O)N3CCCC3)c2)ncc1I)c1cccs1 [BX 795] + COc1cc2c(Oc3ccc(NC(=O)C4(C(=O)Nc5ccc(F)cc5)CC4)cc3F)ccnc2cc1OCCCN1CCOCC1 [Foretinib] (partner 0.25 µM)
Summary of the method: as §1

BX 795 + Tozasertib = compound: O=C(NCCCNc1nc(Nc2cccc(NC(=O)N3CCCC3)c2)ncc1I)c1cccs1 [BX 795] + Cc1cc(Nc2cc(N3CCN(C)CC3)nc(Sc3ccc(NC(=O)C4CC4)cc3)n2)n[nH]1 [Tozasertib] (partner 0.1 µM)
Summary of the method: as §1

BX 795 + OSI-027 = compound: O=C(NCCCNc1nc(Nc2cccc(NC(=O)N3CCCC3)c2)ncc1I)c1cccs1 [BX 795] + COc1cccc2cc(-c3nc([C@H]4CC[C@H](C(=O)O)CC4)n4ncnc(N)c34)[nH]c12 [OSI-027] (partner 0.5 µM)
Summary of the method: as §1

BX 795 + Phenformin = compound: O=C(NCCCNc1nc(Nc2cccc(NC(=O)N3CCCC3)c2)ncc1I)c1cccs1 [BX 795] + N=C(N)NC(=N)NCCc1ccccc1 [Phenformin] (partner 250 µM)
Summary of the method: as §1

BX 795 = compound: O=C(NCCCNc1nc(Nc2cccc(NC(=O)N3CCCC3)c2)ncc1I)c1cccs1 [BX 795]
Summary of the method: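 Viability was read as treated-well nuclei divided by vehicle-well nuclei, using the median across plates. Lung cancer cell lines in 1536-well plates were kept overnight at 37 °C, pinned with five √10-spaced library-drug doses, and after 5 days were Hoechst-stained, imaged at 4× and counted in MetaXpress. Plates passed only with control CV below 25% and at least one doubling.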

BX 795 + Pemetrexed = compound: O=C(NCCCNc1nc(Nc2cccc(NC(=O)N3CCCC3)c2)ncc1I)c1cccs1 [BX 795] + Nc1nc2[nH]cc(CCc3ccc(C(=O)N[C@@H](CCC(=O)O)C(=O)O)cc3)c2c(=O)[nH]1 [Pemetrexed] (partner 0.2 µM)
Summary of the method: as §1

BX 795 + AZD7762 = compound: O=C(NCCCNc1nc(Nc2cccc(NC(=O)N3CCCC3)c2)ncc1I)c1cccs1 [BX 795] + NC(=O)Nc1cc(-c2cccc(F)c2)sc1C(=O)N[C@H]1CCCNC1 [AZD7762] (partner 0.2 µM)
Summary of the method: as §1

BX 795 + Decitabine = compound: O=C(NCCCNc1nc(Nc2cccc(NC(=O)N3CCCC3)c2)ncc1I)c1cccs1 [BX 795] + Nc1ncn([C@H]2C[C@H](O)[C@@H](CO)O2)c(=O)n1 [Decitabine] (partner 2 µM)
Summary of the method: as §1

BX 795 + Olaparib = compound: O=C(NCCCNc1nc(Nc2cccc(NC(=O)N3CCCC3)c2)ncc1I)c1cccs1 [BX 795] + O=C(c1cc(Cc2n[nH]c(=O)c3ccccc23)ccc1F)N1CCN(C(=O)C2CC2)CC1 [Olaparib] (partner 8 µM)
Summary of the method: as §1

BX 795 + Trametinib = compound: O=C(NCCCNc1nc(Nc2cccc(NC(=O)N3CCCC3)c2)ncc1I)c1cccs1 [BX 795] + CC(=O)Nc1cccc(-n2c(=O)n(C3CC3)c(=O)c3c(Nc4ccc(I)cc4F)n(C)c(=O)c(C)c32)c1 [Trametinib] (partner 0.02 µM)
Summary of the method: as §1

BX 795 + Vorinostat = compound: O=C(NCCCNc1nc(Nc2cccc(NC(=O)N3CCCC3)c2)ncc1I)c1cccs1 [BX 795] + O=C(CCCCCCC(=O)Nc1ccccc1)NO [Vorinostat] (partner 1 µM)
Summary of the method: as §1

BX 795 + Palbociclib = compound: O=C(NCCCNc1nc(Nc2cccc(NC(=O)N3CCCC3)c2)ncc1I)c1cccs1 [BX 795] + CC(=O)c1c(C)c2cnc(Nc3ccc(N4CCNCC4)cn3)nc2n(C2CCCC2)c1=O [Palbociclib] (partner 0.5 µM)
Summary of the method: as §1

What does the source list for NCI-H1623?
relative viability (BX 795 + Luminespib; first compound 0.04 µM): 0.598; relative viability (BX 795 + Luminespib; first compound 0.1265 µM): 0.511; relative viability (BX 795 + Luminespib; first compound 0.4 µM): 0.5; relative viability (BX 795 + Luminespib; first compound 1.265 µM): 0.572; relative viability (BX 795 + Dasatinib; first compound 0.04 µM): 0.537; relative viability (BX 795 + Dasatinib; first compound 0.1265 µM): 0.572; relative viability (BX 795 + Dasatinib; first compound 0.4 µM): 0.533; relative viability (BX 795 + Dasatinib; first compound 1.265 µM): 0.512; relative viability (BX 795 + Foretinib; first compound 0.04 µM): 0.913; relative viability (BX 795 + Foretinib; first compound 0.1265 µM): 0.952; relative viability (BX 795 + Foretinib; first compound 0.4 µM): 0.88; relative viability (BX 795 + Foretinib; first compound 1.265 µM): 0.892; relative viability (BX 795 + Tozasertib; first compound 0.04 µM): 0.429; relative viability (BX 795 + Tozasertib; first compound 0.1265 µM): 0.386; relative viability (BX 795 + Tozasertib; first compound 0.4 µM): 0.392; relative viability (BX 795 + Tozasertib; first compound 1.265 µM): 0.461; relative viability (BX 795 + OSI-027; first compound 0.04 µM): 0.458; relative viability (BX 795 + OSI-027; first compound 0.1265 µM): 0.421; relative viability (BX 795 + OSI-027; first compound 0.4 µM): 0.402; relative viability (BX 795 + OSI-027; first compound 1.265 µM): 0.466; relative viability (BX 795 + Phenformin; first compound 0.04 µM): 0.611; relative viability (BX 795 + Phenformin; first compound 0.1265 µM): 0.568; relative viability (BX 795 + Phenformin; first compound 0.4 µM): 0.491; relative viability (BX 795 + Phenformin; first compound 1.265 µM): 0.516; relative viability (BX 795; 0.04 µM): 1.15; relative viability (BX 795; 0.1265 µM): 0.972; relative viability (BX 795; 0.4 µM): 0.989; relative viability (BX 795; 1.265 µM): 0.892

For NCI-H1648, which relative viability (BX 795 + Pemetrexed; first compound 0.04 µM) is on record?
The relative viability was 0.727.

What about the relative viability (BX 795 + Pemetrexed; first compound 0.1265 µM) of the same cell line?
Its relative viability is 0.824.

What about the relative viability (BX 795 + Pemetrexed; first compound 0.4 µM) of the same cell line?
The relative viability was 0.834.

And the relative viability (BX 795 + Pemetrexed; first compound 1.265 µM)?
The relative viability was 1.02.

What about the relative viability (BX 795 + AZD7762; first compound 0.04 µM) of the same cell line?
Its relative viability is 0.833.

And the relative viability (BX 795 + AZD7762; first compound 0.1265 µM)?
The relative viability was 0.756.

What about the relative viability (BX 795 + AZD7762; first compound 0.4 µM) of the same cell line?
The relative viability was 0.791.

What about the relative viability (BX 795 + AZD7762; first compound 1.265 µM) of the same cell line?
The relative viability was 0.911.

What about the relative viability (BX 795 + Tozasertib; first compound 0.04 µM) of the same cell line?
The relative viability was 0.611.

And the relative viability (BX 795 + Tozasertib; first compound 0.1265 µM)?
Its relative viability is 0.466.

What about the relative viability (BX 795 + Tozasertib; first compound 0.4 µM) of the same cell line?
The relative viability was 0.638.

And the relative viability (BX 795 + Tozasertib; first compound 1.265 µM)?
Its relative viability is 0.378.

And the relative viability (BX 795 + Decitabine; first compound 0.04 µM)?
The relative viability was 0.584.

And the relative viability (BX 795 + Decitabine; first compound 0.1265 µM)?
The relative viability was 0.442.

What about the relative viability (BX 795 + Decitabine; first compound 0.4 µM) of the same cell line?
Its relative viability is 0.523.

What about the relative viability (BX 795 + Decitabine; first compound 1.265 µM) of the same cell line?
Its relative viability is 0.616.

What about the relative viability (BX 795 + Olaparib; first compound 0.04 µM) of the same cell line?
Its relative viability is 0.869.

What about the relative viability (BX 795 + Olaparib; first compound 0.1265 µM) of the same cell line?
The relative viability was 1.51.

And the relative viability (BX 795 + Olaparib; first compound 0.4 µM)?
The relative viability was 1.15.

What about the relative viability (BX 795 + Olaparib; first compound 1.265 µM) of the same cell line?
Its relative viability is 1.11.

And the relative viability (BX 795 + OSI-027; first compound 0.04 µM)?
Its relative viability is 0.258.

And the relative viability (BX 795 + OSI-027; first compound 0.1265 µM)?
Its relative viability is 0.214.

And the relative viability (BX 795 + OSI-027; first compound 0.4 µM)?
Its relative viability is 0.265.

What about the relative viability (BX 795 + OSI-027; first compound 1.265 µM) of the same cell line?
Its relative viability is 0.247.

What about the relative viability (BX 795 + Trametinib; first compound 0.04 µM) of the same cell line?
The relative viability was 0.526.

What about the relative viability (BX 795 + Trametinib; first compound 0.1265 µM) of the same cell line?
The relative viability was 0.451.

What about the relative viability (BX 795 + Trametinib; first compound 0.4 µM) of the same cell line?
Its relative viability is 0.575.

And the relative viability (BX 795 + Trametinib; first compound 1.265 µM)?
The relative viability was 0.481.

What about the relative viability (BX 795 + Vorinostat; first compound 0.04 µM) of the same cell line?
Its relative viability is 0.441.

What about the relative viability (BX 795 + Vorinostat; first compound 0.1265 µM) of the same cell line?
Its relative viability is 0.525.

What about the relative viability (BX 795 + Vorinostat; first compound 0.4 µM) of the same cell line?
Its relative viability is 0.668.

What about the relative viability (BX 795 + Vorinostat; first compound 1.265 µM) of the same cell line?
Its relative viability is 0.535.

And the relative viability (BX 795 + Palbociclib; first compound 0.04 µM)?
The relative viability was 0.267.

What about the relative viability (BX 795 + Palbociclib; first compound 0.1265 µM) of the same cell line?
Its relative viability is 0.264.

And the relative viability (BX 795 + Palbociclib; first compound 0.4 µM)?
Its relative viability is 0.411.

What about the relative viability (BX 795 + Palbociclib; first compound 1.265 µM) of the same cell line?
The relative viability was 0.299.

What about the relative viability (BX 795; 0.04 µM) of the same cell line?
The relative viability was 0.872.

And the relative viability (BX 795; 0.1265 µM)?
The relative viability was 0.804.

What about the relative viability (BX 795; 0.4 µM) of the same cell line?
Its relative viability is 0.972.

And the relative viability (BX 795; 1.265 µM)?
The relative viability was 1.01.
